The values below come from PMC3666196, “Formulation and Particle Size Reduction Improve Bioavailability of Poorly Water-Soluble Compounds with Antimalarial Activity” (Malaria Research and Treatment, 2013).

Data set [1] is described as follows: Particle size measurement by laser scattering (Horiba LA-950) and stability of suspensions stored at 4°C. The class given is physicochemical. The protocol: The particle size was measured using a Horiba LA-950 particle size distribution analyzer (Kyoto, Japan), based on laser scattering. This particular instrument has a measurement period of less than 2 minutes from introduction of sample to data presentation with a sample requirement for testing of 2–5 mg per measurement in a 150 mL flow cell, depending on the sample type. All DQ and WR2996666 preparations were measured at a range of transmittance between 80–90%. Various volumes ranging from 100 μL to 800 μL of samples with about 5–10 mg solid from each vial were tested in this instrument to determine the mean particle size, which was the particle size parameter referred in the results. In order to see the change of particle size of various preparations over time, an accelerated stability study of prepared micro- and nanosuspensions were carried out at a temperature of 4°C for a period of up to 3 weeks. Accurately weighed amounts of samples were placed into glass vials with aluminum-lined caps and stored in a microprocessor-controlled humidity chamber, and the samples were then characterized as a function of exposed time. The stability of particles shown in Tables 1 and 2 was some of the preparations evaluated in this study. Generally, the particles in aqueous suspension dosed in our animals were stable for at least 3 weeks.

A short description of data set [2]: HPLC check of drug integrity after formulation and HPH. The class given is physicochemical. The following applies: any of the preparations including microparticles and nanoparticles. Here is the method: The rehydrated DQ nanoparticle formulations were evaluated by particle size measurement, determination of drug concentration in the whole suspension as well as in the fine particles less than […], and PK study in drug dosed animals. The particle size was monitored throughout the preparation procedure and before and after animal studies. To ensure that there was no change of the drug integrity in any of the formulation procedure, drug concentrations and chromatography profiles of the drug molecule identity were examined by an Agilent HPLC (Agilent Technologies, Foster City, CA) with an isocratic mobile phase of 20% water and 80% acetonitrile (0.1% formic acid contained in water and acetonitrile, resp.). All drug preparations in aqueous system were diluted in methanol with vigorous vortex and then in acetonitrile for HPLC analysis. This was done to obtain complete extraction of the compound prior to loading the samples to HPLC. To evaluate the amount of DQ in the fine particles, formulation suspensions were prepared in the amount of 10 mg/mL of DQ in water, incubated at 37°C for 2 hours and passed through a […] size filter. […] In order to determine the actual dosage of the drug for animal studies, the concentration of the drug used for dosing animals was determined by HPLC without prior particle size fractionation with filtration.

Details of data set [3]: method as in earlier work. The following applies: buffered water pH 4–9; cited from earlier work.
On the set-up of data set [4]: method as in PMID 11000543. Particulars: formulated into various solid dispersions; cited from earlier work.

Each structure is given as a SMILES string.

`CCCCCCCCCCOc1cc2c(O)c(C(=O)OCC)cnc2cc1OCC` [DQ, ethyl 6-decyloxy-7-ethoxy-4-hydroxy-3-quinolinecarboxylate, reference compound]: the “Particle size of generated nanoparticles” value in data set [1] (DQ formulation with poloxamer 407 as surfactant, after HPH) is given as above 0.5 μm. For the same molecule, the Particle size in data set [1] (DQ in water or HECT suspension, method HG (homogenizer with generator), stored at 4°C, Week 1) was 99.23 μm; in data set [1] (DQ suspension in HECT, method US (ultra-sonicator), stored at 4°C, Week 1) it was 36.62 μm; in data set [1] (DQ suspension, method HG, stored at 4°C, Mean of weeks 1-3), 102.04 μm; in data set [1] (DQ suspension, method HG, stored at 4°C, Week 2), 101.33 μm; in data set [1] (DQ suspension, method HG, stored at 4°C, Week 3), 105.56 μm; in data set [1] (DQ suspension, method US, stored at 4°C, Mean of weeks 1-3), 36.88 μm. In addition, the Particle size in data set [1] (DQ suspension, method US, stored at 4°C, Week 2) is given as 36.97 μm; in data set [1] (DQ suspension, method US, stored at 4°C, Week 3), 36.92 μm; in data set [1] (DQ, method SD (solid dispersion) plus HPH, in water, stored at 4°C, Week 1), 0.401 μm; in data set [1] (DQ, method SD plus HPH, stored at 4°C, Mean of weeks 1-3), 0.392 μm; in data set [1] (DQ, method SD plus HPH, stored at 4°C, Week 2), 0.384 μm; in data set [1] (DQ, method SD plus HPH, stored at 4°C, Week 3), 0.377 μm. For the same molecule, the “Particle size of DQ formulations” value in data set [1] (solid dispersion with polymers and surfactants, sonication followed by HPH at 1500–2500 bars, 120 homogenization cycles) is listed as 0.2–0.4 μm. Further, the “Chromatography profile (mass quantity, retention time) after formulation process and HPH” value in data set [2] is given as “no change in chromatography profile”. In addition, the Solubility in water in data set [3] is below 0.01 µg/mL.
For the molecule `[H]/N=C(/N=C1NC(=O)C(=O)N1C)Nc1ccc(Cl)c(Cl)c1` [WR299666, (E)-1-(3,4-dichlorophenyl)-3-(1-methyl-4,5-dioxoimidazolidin-2-ylidene) guanidine], the Particle size is recorded as 0.38–0.48 μm in data set [1] (WR299666, HPH at 2500 bars in 6 homogenization cycles); 42.54 μm in data set [1] (WR299666 in water or HECT suspension, method Grinder, stored at 4°C, Week 1); 42.22 μm in data set [1] (WR299666 suspension, method Grinder, stored at 4°C, Mean of weeks 1-3); 41.07 μm in data set [1] (WR299666 suspension, method Grinder, stored at 4°C, Week 2); 43.05 μm in data set [1] (WR299666 suspension, method Grinder, stored at 4°C, Week 3); 61.88 μm in data set [1] (WR299666 suspension, method HG, stored at 4°C, Mean of weeks 1-3). For the same molecule, the Particle size in data set [1] (WR299666 suspension, method HG, stored at 4°C, Week 1) turned out to be 66.31 μm; in data set [1] (WR299666 suspension, method HG, stored at 4°C, Week 2), 71.85 μm; in data set [1] (WR299666 suspension, method HG, stored at 4°C, Week 3), 47.49 μm; in data set [1] (WR299666 suspension, method HPH, stored at 4°C, Mean of weeks 1-3) it was 0.406 μm; in data set [1] (WR299666 suspension, method HPH, stored at 4°C, Week 1) it was 0.376 μm; in data set [1] (WR299666 suspension, method HPH, stored at 4°C, Week 2), 0.397 μm. Besides, the Particle size stood at 0.445 μm in data set [1] (WR299666 suspension, method HPH, stored at 4°C, Week 3); 1.5 μm in data set [1] (WR299666 suspension, method US, stored at 4°C, Mean of weeks 1-3); 1.50 μm in data set [1] (WR299666 suspension, method US, stored at 4°C, Mean of weeks 1-3, listed as W299666); 1.52 μm in data set [1] (WR299666 suspension, method US, stored at 4°C, Week 1); 1.58 μm in data set [1] (WR299666 suspension, method US, stored at 4°C, Week 2); 1.41 μm in data set [1] (WR299666 suspension, method US, stored at 4°C, Week 3). For the same molecule, the “Average particle size of starting raw material” value in data set [1] (without treatment) is listed as “above 70 μm”.
With `CCCCN(CCCC)CCC(O)c1cc2c(Cl)cc(Cl)cc2c2cc(C(F)(F)F)ccc12` (stereo not drawn) [halofantrine], the “Increase in absolute bioavailability” value in data set [4] was “five- to seven”.
